# Read-outs that look alike come from different tables or passages of the source.
# Key:
# Assay in all cases: Fluo-4 calcium mobilization assay (FLIPR), stable inducible cells
# Format in all cases: cell-based
# TAS2R46 = biological target: T1, TAS2R46 (Homo sapiens, UniProt P59540)
# T1 construct: cDNA in pcDNA5/FRT/TO
# T1 sequence (P59540 1-309): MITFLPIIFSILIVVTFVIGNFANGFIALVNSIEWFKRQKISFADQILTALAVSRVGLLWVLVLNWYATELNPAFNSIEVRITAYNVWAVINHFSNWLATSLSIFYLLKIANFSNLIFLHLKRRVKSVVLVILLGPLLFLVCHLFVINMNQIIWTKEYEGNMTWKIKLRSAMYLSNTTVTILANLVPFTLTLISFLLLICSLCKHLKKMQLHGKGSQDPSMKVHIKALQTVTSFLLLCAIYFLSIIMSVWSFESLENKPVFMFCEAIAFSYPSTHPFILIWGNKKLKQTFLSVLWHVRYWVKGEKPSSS
# Description: Fluo-4 calcium mobilization assay (FLIPR), stable inducible cells on TAS2R46
# TAS2R43 = biological target: T2, TAS2R43 (Homo sapiens, UniProt P59537); conditions: for EC50: read-out: TAS2R43 / EC50-conc.
# T2 sequence (P59537 1-309): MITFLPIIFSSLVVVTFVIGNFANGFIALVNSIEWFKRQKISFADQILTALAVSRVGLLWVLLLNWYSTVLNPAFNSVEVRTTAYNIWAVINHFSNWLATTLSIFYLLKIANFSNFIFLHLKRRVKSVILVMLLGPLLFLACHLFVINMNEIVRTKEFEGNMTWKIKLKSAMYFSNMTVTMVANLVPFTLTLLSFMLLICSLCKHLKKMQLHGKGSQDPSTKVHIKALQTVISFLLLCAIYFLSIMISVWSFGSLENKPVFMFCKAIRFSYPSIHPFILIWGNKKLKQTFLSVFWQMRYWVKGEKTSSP
# Description: Fluo-4 calcium mobilization assay (FLIPR), stable inducible cells on TAS2R43
# TAS2R14 = biological target: T3, TAS2R14 (Homo sapiens, UniProt Q9NYV8); conditions: agonist; C1 buffer pH 7.4; non-induced cells subtracted
# T3 sequence (Q9NYV8 1-317): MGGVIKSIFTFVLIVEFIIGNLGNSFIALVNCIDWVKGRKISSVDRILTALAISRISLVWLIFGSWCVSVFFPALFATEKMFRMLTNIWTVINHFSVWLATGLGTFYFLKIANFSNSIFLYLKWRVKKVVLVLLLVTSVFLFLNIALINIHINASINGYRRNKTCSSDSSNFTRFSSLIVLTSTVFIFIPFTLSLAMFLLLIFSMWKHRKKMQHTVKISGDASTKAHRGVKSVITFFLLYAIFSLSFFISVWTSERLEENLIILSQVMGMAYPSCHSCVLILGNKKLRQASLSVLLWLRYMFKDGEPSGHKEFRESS
# Description: Fluo-4 calcium mobilization assay (FLIPR), stable inducible cells on TAS2R14
# [1] = agonist, C1 buffer pH 7.4, non-induced cells subtracted
TAS2R46 / Threshold (TAS2R46; [1]),TAS2R43 threshold (TAS2R43; [1]),TAS2R14 / Threshold (TAS2R14),EC50 (TAS2R46; read-out: TAS2R46 / EC50-conc.),EC50 (TAS2R43),EC50 (TAS2R43; [1]),Molecule
30 µM,10 µM,100 µM,,,,"CC1=C2C(=O)C=C(CO)[C@@H]2[C@H]2OC(=O)[C@@H](C)[C@@H]2[C@@H](O)C1 [11β,13-dihydrolactucin]"
,,100 µM,8.85 ± 1.17 µM,14.9 ± 2.5 µM,,C=C1C(=O)O[C@@H]2[C@H]3C(CO)=CC(=O)C3=C(C)C[C@H](O)[C@@H]12 [lactucin]
,,30 µM,,,0.46 ± 0.08 µM,lactucopicrin

# From publication PMC9806268, “Overlapping activation pattern of bitter taste receptors affect sensory adaptation and food perception” (Frontiers in Nutrition, 2022)
